pIC50: −log10 of the molar value.

The results in this text go back to patent publication US20250388542A1, “ANALOGUES OF PENTAMIDINE AND USES THEREFOR” (Auransa Inc., priority 2018, published 2025).

For data set [1], the system named is DU4475. The experiment in a line: CellTiter-Glo cytotoxicity, cancer cell line panel / breast cancer study. In kind it is cell-based. As to conditions: Homo sapiens, DU-4475; DU4475, Breast carcinoma. How it is done: (§1) The objective of this study is to investigate potential cell killing effect of Compounds 1-15 on 3 cancer cell lines. 50% inhibition concentration (IC50) was determined for these compounds in various cancer cell lines using CellTiter-Glo™ luminescent cell viability assay at different compound concentrations. Each cell line (e.g., NCI-H209; NCI-H69; and SW1271) was treated with Compounds 1-15 and culture medium contains 0.2% [v/v] DMSO vehicle control. All the cells were cultured in the media supplemented with 10-20% fetal bovine serum at 37° C., 5% CO2 and 95% humidity.
(§2) The objective of this study is to investigate the effect of Compound 1 on cytotoxicity against 61 different types of cancer cell lines. IC50 were values were obtained using CellTiter-Glo™ as described above. Each cell line shown in Table 3 was treated with Compound 1, a standard chemotherapy drug, cisplatin, as reference control and culture medium contains 0.2% [v/v] DMSO vehicle control. All cancer cell lines were cultured in media supplemented with 10-20% fetal bovine serum at 37° C., 5% CO2 and 95% humidity.
(§3) The objective of this study is to investigate the effect of Compound 1 on cell viability of various types of breast cancer. Four different breast cancer cell lines were employed in the study. Each cell line shown in Table 5 was treated with Compound 1 and standard of care (cisplatin) and culture medium contains 0.2% [v/v] DMSO vehicle control and IC50 values were obtained as described above. The raw data values from the CellTiter-Glo™ cell viability assay expressed in relative luminescence units were normalized to the vehicle for each individual plate, and any reduction in luminescence indicated a decrease in viability (%). The data was analyzed in GraphPad PRISM using a non-linear sigmoidal plot with variable slope (asymmetric four-point linear regression), and an IC50 value for each compound was generated. The experiment tested pentamidine, compound 1, and standard-of-care control Cisplatin in full growth media for 8 days. Cells were initially treated with the test compounds on Day 0, and the cells were then replenished with fresh compound dilutions on Day 3. Pentamidine, Compound 1, and cisplatin were tested at 9 concentration points; 100, 33.33, 11.11, 3.70, 1.23, 0.41, 0.14, 0.05, and 0.02 μM (final DMSO concentration=0.5%).

For data set [2], the system named is ZR-75-1. Described as above. The class given is cell-based. The settings on record: Homo sapiens; ZR-75-1, Invasive ductal carcinoma. The procedure: as §1, §2, §3
Data set [3] relates to MCF7. Described as above. The class given is cell-based. As to conditions: Homo sapiens; MCF7, Invasive ductal carcinoma. How it is done:
as §1, §2, §3

The test system of data set [4] is HCC1954. The data set is described as above. The class given is cell-based. The settings on record: Homo sapiens; HCC1954, Ductal breast carcinoma. The procedure: as §1, §2, §3
Data set [5] deals with Hep3B. The experiment in a line: CellTiter-Glo cell viability, liver cell lines, 8 days. The class given is cell-based. As to conditions: Homo sapiens, 192 h. (In ATP-based viability assays light output follows the ATP content of the culture.)
Data set [6] deals with HepG2. The description is as above. In kind it is cell-based. The settings on record: Homo sapiens, 192 h; HepG2, 8 days.
Data set [7] relates to MHCC97H. The description is as above. In kind it is cell-based. As to conditions: Homo sapiens, 192 h.
A short description of data set [8]: Human microsomal CL rate. The class given is in vitro ADME. As to conditions: human microsomes.
Data set [9] is described as follows: Tolerance in non-tumor bearing BALB/c nude mice. The class given is in vivo. How it is done: The objective of this research is to assess Compound 1 tolerance in non-tumor bearing mice in BALB/c nude mice. Compound 1 exposure in plasma, liver, kidney, colon and bladder as well as serum-derived blood chemistries were tested.
Thirty-six (36) female BALB/c nude mice of age 6-8 weeks having body weight of around 19-23 g were kept in individual ventilation cages at constant temperature (20˜26° C.) and humidity (40-70%) with 3 animals per cage. Animals had free access to irradiation sterilized dry granule food and sterile drinking water during the entire study period.
After grouping, the animals were checked daily for morbidity and mortality. At the time of routine monitoring, the animals were measured for any effects on behavior such as mobility, food and water consumption, body weight gain/loss. Body weights were measured daily. Death and other clinical signs were recorded.
Animals from each group were tested and samples collected at two different time points for blood chemistry tests as well as compound concentration in plasma, kidney, liver, colon and bladder. The first sampling was performed right before the last dose (0 h) on Day 21; and the second sampling was performed 1 hour after the last dose (1 h) on day 21. Detailed descriptions for sampling methods are as follows: […]

Take `N=C(N)c1ccc(OCCCCCOc2ccc(C(=N)N)nc2)cc1` [Compound 1, 5-(5-(4-carbamimidoylphenoxy)pentyloxy)picolinimidamide]: the negative-log IC50 (pIC50) was 6.62 in data set [1]; 5.88 in [2]; 6.03 in data set [3]; 5.57 in data set [4]; 6.74 in data set [5]; 6.51 in [6]. In addition, the pIC50 in [7] is 5.27. Also, in data set [8], the microsomal CLint was 13.6 µL/min/mg. In addition, in [9] (5 mg/kg QD, 10 mg/kg QD, 10 mg/kg Q2D and 20 mg/kg QD, PO, 21 days), the “tolerability, body weight loss” value is “well tolerated with no obvious body weight loss”. The “body weights compared with vehicle control group” value in data set [9] (40 mg/kg QD PO, day 20 and 21) was “lower in a statistically significant manner at day 20 and 21”.

By pIC50 is commonly meant −log10 of the IC50, conventionally taken in molar units. A high value points to a small IC50. By microsomal CLint is commonly meant the capacity of the preparation to metabolise the compound, expressed as a volume cleared per time. The low end stands for slow turnover, the high end for rapid turnover.
